Key:
[1] = Absorbance and fluorescence maximum wavelengths and quantum yields of the CyNA library; assay type: physicochemical; conditions: for λabs, absorbance maximum wavelength / λem, fluorescence maximum wavelength: CyNA library; for φ, quantum yield: in DMSO, Cardiogreen as standard
Experimental: Since the k values of the different CyNA compounds indicated some dependency on the chemical structure of the amine, the CyNA scaffold was derivatized with a broad range of primary amines (FIGS. 4A-4C). The fluorescence properties of the 80-member CyNA library were measured. The absorption maximum wavelengths ranged from 802 nm to 806 nm, emission maximum wavelengths ranged from 817 nm to 823 nm, and the average quantum yield was approximately 0.10 (Table 2).
All the chemicals (building block amines plus others) and solvents were purchased from Sigma Aldrich, Alfa Aesar, Fluka, MERCK or Acros, and used without further purification. ^1H-NMR and ^13C-NMR spectra were recorded on Bruker Avance 300 NMR and 500 NMR spectrometers, and chemical shifts are expressed in parts per million (ppm). High-resolution mass spectrometry (HRMS) data was recorded on a Micromass VG 7035. Photobleaching experiments were performed using a UVP Blak-Ray® B-100AP high intensity UV lamp (100 W, 365 nm) Spectroscopic and quantum yield data were measured on a SpectraMax M2 spectrophotometer (Molecular Devices), and the data analysis was performed using GraphPrism 5.0. Photobleaching measurements were performed using an Eclipse Ti-U Nikon microscope (filter cube: 750/800) attached to Ti:sappire oscillator that operated in continuous wave mode, and the data was processed using the software NIS-Elements 3.10. In vivo images were taken in an IVIS Spectrum imaging system (Caliper Life Sciences).

[2] = Primary screening of photostability of the CyNA library (time-course fluorescence, 8 h); assay type: physicochemical; set-up: F/Fo, fluorescent intensity at 8 hours vs 0 hours: unit: %; conditions: 10 μM in HEPES 100 mM pH 7.4, 2% DMSO
Experimental: As a primary evaluation of photo stability, the decrease in fluorescence intensity of the 80 CyNA compounds was measured (see Table 2). The average decrease in fluorescence intensity after 8 hours of irradiation by a xenon lamp was approximately 18%. A subset of the most photostable compounds (i.e., F/Fo reported in Table 2 was greater than or equal to 95) was examined under stronger irradiation in various buffers.
10-μM CyNA solutions in 100 mM HEPES buffer (pH 7.4) containing 2% DMSO were placed in a 96-well black plate, and fluorescence intensity measurements were recorded every 10 minutes for a total period of 8 hours (excitation-emission: 790-820 nm). A subset of fourteen compounds selected according to their F8h/Fo quotients, quantum yields and maximum relative fluorescence units (RFU) values was further evaluated in a secondary screening

| SMILES | λabs, absorbance maximum wavelength [1] | λem, fluorescence maximum wavelength [1] | φ, quantum yield [1] | F/Fo, fluorescent intensity at 8 hours vs 0 hours [2] | max RFU, maximum relative fluorescence units [2] |
| --- | --- | --- | --- | --- | --- |
| CCCN1/C(=C/C=C2\CCCC(/C=C/C3=[N+](CCC)c4ccccc4C3(C)C)=C2N(Cc2ccccn2)C(C)=O)C(C)(C)c2ccccc21 [CyNA-401] | 805 nm | 820 nm | 0.10 | 91 | 856.5 |
| CCCN1/C(=C/C=C2\CCCC(/C=C/C3=[N+](CCC)c4ccccc4C3(C)C)=C2N(C(C)=O)C(C)CCc2ccccc2)C(C)(C)c2ccccc21 (centres unmarked) [CyNA-275] | 804 nm | 817 nm | 0.14 | 62 | 679.8 |
| CCCN1/C(=C/C=C2\CCCC(/C=C/C3=[N+](CCC)c4ccccc4C3(C)C)=C2N(Cc2c(F)cccc2F)C(C)=O)C(C)(C)c2ccccc21 [CyNA-80] | 804 nm | 817 nm | 0.08 | 93 | 734.9 |
| CCCN1/C(=C/C=C2\CCCC(/C=C/C3=[N+](CCC)c4ccccc4C3(C)C)=C2N(CCCOCC)C(C)=O)C(C)(C)c2ccccc21 [CyNA-167] | 804 nm | 818 nm | 0.10 | 92 | 1031.8 |
| CCCN1/C(=C/C=C2\CCCC(/C=C/C3=[N+](CCC)c4ccccc4C3(C)C)=C2N(CCc2ccc(OC)c(OC)c2)C(C)=O)C(C)(C)c2ccccc21 [CyNA-266] | 804 nm | 823 nm | 0.08 | 99 | 541.8 |
| CCCN1/C(=C/C=C2\CCCC(/C=C/C3=[N+](CCC)c4ccccc4C3(C)C)=C2N(Cc2ccccc2Br)C(C)=O)C(C)(C)c2ccccc21 [CyNA-329] | 806 nm | 821 nm | 0.10 | 99 | 348.8 |
| CCCN1/C(=C/C=C2\CCCC(/C=C/C3=[N+](CCC)c4ccccc4C3(C)C)=C2N(Cc2ccc(C)cc2)C(C)=O)C(C)(C)c2ccccc21 [CyNA-396] | 804 nm | 820 nm | 0.09 | 96 | 736.1 |
| CCCN1/C(=C/C=C2\CCCC(/C=C/C3=[N+](CCC)c4ccccc4C3(C)C)=C2N(CC(c2ccccc2)c2ccccc2)C(C)=O)C(C)(C)c2ccccc21 [CyNA-548] | 804 nm | 820 nm | 0.04 |  | 67.6 |
| CCCN1/C(=C/C=C2\CCCC(/C=C/C3=[N+](CCC)c4ccccc4C3(C)C)=C2N(Cc2ccccc2OC)C(C)=O)C(C)(C)c2ccccc21 [CyNA-388] | 803 nm | 819 nm | 0.14 | 97 | 1398.5 |
| CCCN1/C(=C/C=C2\CCCC(/C=C/C3=[N+](CCC)c4ccccc4C3(C)C)=C2N(CCCN(C)C)C(C)=O)C(C)(C)c2ccccc21 [CyNA-427] | 805 nm | 821 nm | 0.14 | 100 | 1247.4 |
| CCCN1/C(=C/C=C2\CCCC(/C=C/C3=[N+](CCC)c4ccccc4C3(C)C)=C2N(Cc2cccc(C)c2)C(C)=O)C(C)(C)c2ccccc21 [CyNA-398] | 804 nm | 819 nm | 0.07 | 99 | 540.2 |
| CCCN1/C(=C/C=C2\CCCC(/C=C/C3=[N+](CCC)c4ccccc4C3(C)C)=C2N(Cc2ccccc2F)C(C)=O)C(C)(C)c2ccccc21 [CyNA-375] | 804 nm | 821 nm | 0.07 | 98 | 533.7 |
| CCCN(C(C)=O)C1=C(/C=C/C2=[N+](CCC)c3ccccc3C2(C)C)CCC/C1=C\C=C1\N(CCC)c2ccccc2C1(C)C [CyNA-95] | 806 nm | 818 nm | 0.09 | 91 | 1027.9 |
| CCCN1/C(=C/C=C2\CCCC(/C=C/C3=[N+](CCC)c4ccccc4C3(C)C)=C2N(Cc2cccc(OC)c2)C(C)=O)C(C)(C)c2ccccc21 [CyNA-387] | 804 nm | 820 nm | 0.07 | 75 | 739.9 |
| CCCN1/C(=C/C=C2\CCCC(/C=C/C3=[N+](CCC)c4ccccc4C3(C)C)=C2N(Cc2ccccc2C)C(C)=O)C(C)(C)c2ccccc21 [CyNA-101] | 806 nm | 822 nm | 0.08 | 86 | 693.9 |
| CCCCCCCCCCCCCCN(C(C)=O)C1=C(/C=C/C2=[N+](CCC)c3ccccc3C2(C)C)CCC/C1=C\C=C1\N(CCC)c2ccccc2C1(C)C [CyNA-28] | 804 nm | 818 nm | 0.05 | 87 | 23.9 |
| CCCCN(C(C)=O)C1=C(/C=C/C2=[N+](CCC)c3ccccc3C2(C)C)CCC/C1=C\C=C1\N(CCC)c2ccccc2C1(C)C [CyNA-373] | 805 nm | 820 nm | 0.07 | 76 | 567.2 |
| CCCN1/C(=C/C=C2\CCCC(/C=C/C3=[N+](CCC)c4ccccc4C3(C)C)=C2N(C(C)=O)C2CCN(Cc3ccccc3)CC2)C(C)(C)c2ccccc21 [CyNA-107] | 803 nm | 820 nm | 0.07 | 50 | 275.3 |
| CCCN1/C(=C/C=C2\CCCC(/C=C/C3=[N+](CCC)c4ccccc4C3(C)C)=C2N(Cc2cccc(F)c2F)C(C)=O)C(C)(C)c2ccccc21 [CyNA-351] | 805 nm | 818 nm | 0.10 | 52 | 555.4 |
| CCCN1/C(=C/C=C2\CCCC(/C=C/C3=[N+](CCC)c4ccccc4C3(C)C)=C2N(CCc2ccccc2-c2ccccc2)C(C)=O)C(C)(C)c2ccccc21 [CyNA-599] | 805 nm | 819 nm | 0.07 |  | 105.9 |
